Measured values taken from the supplement of paper PMC11061612.

What was measured:
Assay in all cases: combination Emax (second highest fraction inhibited in the dose matrix, 72 h); higher = more inhibition; extreme values may be limits of the assay
[1] = system: U-118-MG (Low Grade Glioma)
Outline: (§1)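 Cell lines in DMEM/F12 or RPMI with 10% FBS were plated in 1536-well plates, held 24 hours at 37°C, 5% CO2, then given two-drug dose matrices for 72 hours (DMSO typically 0.2%). Viability was read by CellTiter-Glo 2.0 luminescence and scaled as inhibition from 0 (vehicle wells) to 1 (blank wells). Combination Emax is the second-highest inhibition in the matrix; Bliss excess is observed combination effect minus expected EA + EB − EA·EB, EA and EB being single-agent effects.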

[2] = system: GDM-1 (Acute Myeloid Leukemia)
Outline: as §1

[3] = system: WSU-DLCL2 (B-Cell Non-Hodgkin's Lymphoma)
Outline: as §1

[4] = system: D-283MED (Other Solid Carcinomas)
Outline: as §1

[5] = system: MEG-01 (Chronic Myelogenous Leukemia)
Outline: as §1

[6] = system: SKN-3 (Head and Neck Carcinoma)
Outline: as §1

H4 (Low Grade Glioma) = system: H4 (Low Grade Glioma)
Outline: as §1

D-392MG (Glioblastoma) = system: D-392MG (Glioblastoma)
Outline: as §1

[7] = system: HLE (Hepatocellular Carcinoma)
Outline: as §1

[8] = system: SLVL (B-Cell Non-Hodgkin's Lymphoma)
Outline: as §1

CS1 (Chondrosarcoma) = system: CS1 (Chondrosarcoma)
Outline: as §1

[9] = system: EKVX (Non-Small Cell Lung Carcinoma)
Outline: as §1

[10] = system: RCC10RGB (Kidney Carcinoma)
Outline: as §1

Saos-2 (Osteosarcoma) = system: Saos-2 (Osteosarcoma)
Outline: as §1

[11] = system: NCI-H1688 (Small Cell Lung Carcinoma)
Outline: as §1

[12] = system: SNG-M (Endometrial Carcinoma)
Outline: as §1

[13] = system: ETK-1 (Biliary Tract Carcinoma)
Outline: as §1

[14] = system: BICR78 (Oral Cavity Carcinoma)
Outline: as §1

[15] = system: HOP-92 (Non-Small Cell Lung Carcinoma)
Outline: as §1

[16] = system: HCT-116 (Colorectal Carcinoma)
Outline: as §1

Compound | combination Emax [1] | combination Emax [2] | combination Emax [3] | combination Emax [4] | combination Emax [5] | combination Emax [6] | combination Emax (H4 (Low Grade Glioma)) | combination Emax (D-392MG (Glioblastoma)) | combination Emax [7] | combination Emax [8] | combination Emax (CS1 (Chondrosarcoma)) | combination Emax [9] | combination Emax [10] | combination Emax (Saos-2 (Osteosarcoma)) | combination Emax [11] | combination Emax [12] | combination Emax [13] | combination Emax [14] | combination Emax [15] | combination Emax [16]
CN(CCO)CC[C@H](CSc1ccccc1)Nc1ccc(S(=O)(=O)NC(=O)c2ccc(N3CCC([C@@H](O)c4ccccc4-c4ccc(Cl)cc4)CC3)cc2)cc1S(=O)(=O)C(F)(F)F [AZD4320] + C[C@@H](Nc1cc(F)cc(F)c1)c1cc(C(=O)N(C)C)cc2c(=O)cc(N3CCOCC3)oc12 [AZD8186] (first compound max 1 µM, 7x7, partner max 3 µM) | 0.812 | 1 | 0.978 | 0.928 | 0.773 | 0.277 | 0.583 | 0.649 | 0.48 | 0.955 | 0.839 | 0.308 | 0.507 | 0.478 | 0.484 | 0.674 | 0.324 | 0.446 | 0.967 | 0.686
CN(CCO)CC[C@H](CSc1ccccc1)Nc1ccc(S(=O)(=O)NC(=O)c2ccc(N3CCC([C@@H](O)c4ccccc4-c4ccc(Cl)cc4)CC3)cc2)cc1S(=O)(=O)C(F)(F)F [AZD4320] + Cc1cc2ncnn2cc1Nc1ncc2c(n1)n(C1CCOCC1)c(=O)n2C [AZD7648] (first compound max 1 µM, 7x7, partner max 10 µM) | 0.351 | 0.982 | 0.744 | 0.923 | 0.925 | 0.0826 | 0.204 | 0.169 | 0.33 | 0.605 | 0.347 | 0.237 | 0.265 | 0.21 | 0.617 | 0.264 | 0.209 | 0.198 | 0.891 | 0.229
Cc1c2c(nn1C)CSCc1cc(n(C)n1)CSc1cc(c3ccccc3c1)OCCCc1c(C(=O)O)n(C)c3c-2c(Cl)ccc13 [AZD5991] + C1CN(CCC1(C(=O)N[C@@H](CCO)C2=CC=C(C=C2)Cl)N)C3=NC=NC4=C3C=CN4 [Capivasertib] (first compound max 1 µM, 7x7, partner max 3 µM) | 0.289 | 0.454 | 1 | 0.367 | 0.361 | 0.121 | 0.495 | 0.495 | 0.279 | 0.567 | 0.255 | 0.301 | 0.298 | 0.52 | 0.322 | 0.333 | 0.254 | 0.266 | 0.402 | 0.24
Cc1c2c(nn1C)CSCc1cc(n(C)n1)CSc1cc(c3ccccc3c1)OCCCc1c(C(=O)O)n(C)c3c-2c(Cl)ccc13 [AZD5991] + C=CCn1c(=O)c2cnc(Nc3ccc(N4CCN(C)CC4)cc3)nc2n1-c1cccc(C(C)(C)O)n1 [AZD1775] (first compound max 1 µM, partner max 1 µM) | 0.339 | 0.961 | 1 | 0.971 | 0.927 | 0.696 | 0.9 | 0.417 | 0.849 | 0.937 | 0.563 | 0.316 | 0.541 | 0.801 | 0.601 | 0.733 | 0.59 | 0.381 | 0.807 | 0.641
Cc1c2c(nn1C)CSCc1cc(n(C)n1)CSc1cc(c3ccccc3c1)OCCCc1c(C(=O)O)n(C)c3c-2c(Cl)ccc13 [AZD5991] + CC1(C)CCC(CN2CCN(c3ccc(C(=O)NS(=O)(=O)c4ccc(NCC5CCOCC5)c([N+](=O)[O-])c4)c(Oc4cnc5[nH]ccc5c4)c3)CC2)=C(c2ccc(Cl)cc2)C1 [Venetoclax] (first compound max 1 µM, 7x7, partner max 1 µM) | 0.196 | 0.999 | 1 | 0.639 | 0.837 | 0.15 | 0.726 | 0.791 | 0.287 | 0.777 | 0.16 | 0.138 | 0.221 | 0.534 | 0.702 | 0.209 | 0.152 | 0.18 | 0.44 | 0.163
Cc1c2c(nn1C)CSCc1cc(n(C)n1)CSc1cc(c3ccccc3c1)OCCCc1c(C(=O)O)n(C)c3c-2c(Cl)ccc13 [AZD5991] + CCN(CCO)CCCOc1ccc2c(Nc3cc(CC(=O)Nc4cccc(F)c4)[nH]n3)ncnc2c1 [AZD2811] (first compound max 1 µM, 7x7, partner max 1 µM) | 0.342 | 0.949 | 1 | 0.639 | 0.758 | 0.271 | 0.586 | 0.403 | 0.579 | 0.768 | 0.315 | 0.226 | 0.292 | 0.816 | 0.314 | 0.345 | 0.294 | 0.304 | 0.689 | 0.438
